Measurements as given in the kinase profiling compilation of Christmann-Franck et al. (2016).

Legend:
Experiment in all cases: KINOMEscan competition binding
Conditions in all cases: compound 10.0 µM
HIPK3 (human) = HIPK3 (human) (UniProt Q9H422)
PAK2 (human) = PAK2 (human) (UniProt Q13177)
CDK7 (human) = CDK7 (human) (UniProt P50613)
INSRR (human) = INSRR (human) (UniProt P14616)
CLK3 (human) = CLK3 (human) (UniProt P49761)
STK17B (human) = STK17B (human) (UniProt O94768)
GAK (human) = GAK (human) (UniProt O14976)
GAK (human), sequence (O14976 whole entry, looked up): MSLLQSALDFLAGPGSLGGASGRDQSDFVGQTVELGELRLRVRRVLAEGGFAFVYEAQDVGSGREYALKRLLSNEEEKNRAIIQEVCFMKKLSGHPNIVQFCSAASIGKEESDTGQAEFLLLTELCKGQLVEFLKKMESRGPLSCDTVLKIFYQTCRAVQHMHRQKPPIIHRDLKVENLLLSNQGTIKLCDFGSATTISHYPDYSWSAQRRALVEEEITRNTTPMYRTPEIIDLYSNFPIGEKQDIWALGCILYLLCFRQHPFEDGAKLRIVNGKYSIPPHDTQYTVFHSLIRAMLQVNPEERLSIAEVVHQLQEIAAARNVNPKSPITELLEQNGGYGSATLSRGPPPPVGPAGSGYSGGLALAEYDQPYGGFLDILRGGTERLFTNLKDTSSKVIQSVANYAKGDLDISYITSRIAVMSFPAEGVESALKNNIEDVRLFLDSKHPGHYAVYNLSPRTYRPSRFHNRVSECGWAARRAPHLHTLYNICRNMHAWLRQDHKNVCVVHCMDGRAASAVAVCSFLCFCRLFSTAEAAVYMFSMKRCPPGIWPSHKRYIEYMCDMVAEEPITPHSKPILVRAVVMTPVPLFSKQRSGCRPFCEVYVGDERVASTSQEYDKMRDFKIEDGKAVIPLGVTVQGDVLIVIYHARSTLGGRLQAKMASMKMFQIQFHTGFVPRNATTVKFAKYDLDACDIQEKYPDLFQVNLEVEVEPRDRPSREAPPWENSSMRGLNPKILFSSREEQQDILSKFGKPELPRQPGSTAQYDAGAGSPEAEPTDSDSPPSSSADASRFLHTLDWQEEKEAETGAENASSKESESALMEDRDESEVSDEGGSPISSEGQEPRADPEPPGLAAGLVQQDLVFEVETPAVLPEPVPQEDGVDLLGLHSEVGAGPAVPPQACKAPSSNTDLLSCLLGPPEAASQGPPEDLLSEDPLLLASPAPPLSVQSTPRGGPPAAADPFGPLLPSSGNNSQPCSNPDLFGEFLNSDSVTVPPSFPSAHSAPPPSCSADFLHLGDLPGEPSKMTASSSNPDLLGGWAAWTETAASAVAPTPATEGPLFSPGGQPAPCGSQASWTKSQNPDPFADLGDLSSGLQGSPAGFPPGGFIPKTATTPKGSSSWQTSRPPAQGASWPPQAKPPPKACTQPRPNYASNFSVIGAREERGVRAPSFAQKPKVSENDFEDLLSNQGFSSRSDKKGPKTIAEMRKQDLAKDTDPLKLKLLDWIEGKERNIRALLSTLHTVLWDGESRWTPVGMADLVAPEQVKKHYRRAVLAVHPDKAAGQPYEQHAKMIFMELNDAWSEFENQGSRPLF

RPS6KA1 KD1 (human) = RPS6KA1 KD1 (human) (UniProt Q15418)
RPS6KA1 KD1 (human), sequence (Q15418 whole entry, looked up): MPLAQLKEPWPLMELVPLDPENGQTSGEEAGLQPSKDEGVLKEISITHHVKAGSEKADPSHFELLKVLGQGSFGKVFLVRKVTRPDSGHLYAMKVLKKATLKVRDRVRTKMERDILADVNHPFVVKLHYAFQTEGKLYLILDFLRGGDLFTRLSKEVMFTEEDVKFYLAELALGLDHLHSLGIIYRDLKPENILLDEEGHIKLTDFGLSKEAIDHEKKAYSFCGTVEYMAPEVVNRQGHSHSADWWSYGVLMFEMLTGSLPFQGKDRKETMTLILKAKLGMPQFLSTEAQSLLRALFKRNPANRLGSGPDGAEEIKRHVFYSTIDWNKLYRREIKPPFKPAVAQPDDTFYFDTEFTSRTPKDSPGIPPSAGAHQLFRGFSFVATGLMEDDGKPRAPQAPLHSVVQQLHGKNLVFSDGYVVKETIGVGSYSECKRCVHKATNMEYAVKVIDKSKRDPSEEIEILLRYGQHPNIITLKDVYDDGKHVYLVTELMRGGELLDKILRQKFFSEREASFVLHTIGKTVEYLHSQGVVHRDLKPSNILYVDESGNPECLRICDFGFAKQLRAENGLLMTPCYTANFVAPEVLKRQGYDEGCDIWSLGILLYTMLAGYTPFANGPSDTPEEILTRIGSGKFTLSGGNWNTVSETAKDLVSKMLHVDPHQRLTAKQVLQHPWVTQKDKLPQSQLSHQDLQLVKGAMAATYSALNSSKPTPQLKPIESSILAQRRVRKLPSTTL

ERBB4 (human) = ERBB4 (human) (UniProt Q15303)
ABL2 (human) = ABL2 (human) (UniProt P42684)
DYRK2 (human) = DYRK2 (human) (UniProt Q92630)
GSK3B (human) = GSK3B (human) (UniProt P49841)
CaMK1 (human) = CaMK1 (human) (UniProt Q14012)
CaMK1 (human), sequence (Q14012 whole entry, looked up): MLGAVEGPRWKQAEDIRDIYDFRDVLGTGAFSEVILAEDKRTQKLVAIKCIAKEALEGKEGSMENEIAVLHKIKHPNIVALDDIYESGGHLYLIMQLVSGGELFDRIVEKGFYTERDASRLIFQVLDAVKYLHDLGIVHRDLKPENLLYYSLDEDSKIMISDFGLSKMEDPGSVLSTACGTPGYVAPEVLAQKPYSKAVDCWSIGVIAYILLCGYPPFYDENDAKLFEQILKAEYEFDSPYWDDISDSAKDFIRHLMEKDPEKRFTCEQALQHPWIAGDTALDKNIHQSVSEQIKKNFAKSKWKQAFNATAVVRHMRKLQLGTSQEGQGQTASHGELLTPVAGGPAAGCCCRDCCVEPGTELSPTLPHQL

HUNK (human) = HUNK (human) (UniProt P57058)
PI4KB (human) = PI4KB (human) (UniProt Q9UBF8)
CDKL3 (human) = CDKL3 (human) (UniProt Q8IVW4)
CDKL3 (human), sequence (Q8IVW4 whole entry, looked up): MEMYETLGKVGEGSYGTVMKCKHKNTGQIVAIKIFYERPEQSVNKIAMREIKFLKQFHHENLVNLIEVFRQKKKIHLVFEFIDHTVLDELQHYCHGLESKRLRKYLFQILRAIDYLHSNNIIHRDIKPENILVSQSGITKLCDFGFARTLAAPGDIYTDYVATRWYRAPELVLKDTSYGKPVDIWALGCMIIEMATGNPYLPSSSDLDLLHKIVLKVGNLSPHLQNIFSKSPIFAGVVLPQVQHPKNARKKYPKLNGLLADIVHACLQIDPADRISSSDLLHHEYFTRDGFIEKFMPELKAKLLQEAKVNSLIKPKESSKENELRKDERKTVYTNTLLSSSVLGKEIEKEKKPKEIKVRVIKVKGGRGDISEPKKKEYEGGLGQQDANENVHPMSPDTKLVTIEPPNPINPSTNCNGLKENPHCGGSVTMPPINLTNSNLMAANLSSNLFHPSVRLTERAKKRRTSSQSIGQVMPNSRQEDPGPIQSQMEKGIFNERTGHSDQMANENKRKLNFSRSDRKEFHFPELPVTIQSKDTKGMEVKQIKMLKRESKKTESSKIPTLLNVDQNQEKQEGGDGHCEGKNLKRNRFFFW

BTK (human) = BTK (human) (UniProt Q06187)
TEK (human) = TEK (human) (UniProt Q02763)
DCLK3 (human) = DCLK3 (human) (UniProt Q9C098)
TLK1 (human) = TLK1 (human) (UniProt Q9UKI8)
TESK1 (human) = TESK1 (human) (UniProt Q15569)
PAK6 (human) = PAK6 (human) (UniProt Q9NQU5)
ACVR2B (human) = ACVR2B (human) (UniProt Q13705)
EPHA8 (human) = EPHA8 (human) (UniProt P29322)
PRKD1 (human) = PRKD1 (human) (UniProt Q15139)
CDK14 (human) = CDK14 (human) (UniProt O94921)
NEK6 (human) = NEK6 (human) (UniProt Q9HC98)
NEK6 (human), sequence (Q9HC98 whole entry, looked up): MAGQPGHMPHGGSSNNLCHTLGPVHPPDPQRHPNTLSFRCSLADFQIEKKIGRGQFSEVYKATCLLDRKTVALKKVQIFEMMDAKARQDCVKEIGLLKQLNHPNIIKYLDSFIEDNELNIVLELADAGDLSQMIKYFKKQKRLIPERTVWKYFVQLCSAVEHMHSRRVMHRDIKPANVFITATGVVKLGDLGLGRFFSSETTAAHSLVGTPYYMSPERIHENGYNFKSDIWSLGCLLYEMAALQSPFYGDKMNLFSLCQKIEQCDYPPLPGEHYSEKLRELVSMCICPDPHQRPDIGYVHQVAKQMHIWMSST

IGF1R (human) = IGF1R (human) (UniProt P08069)
MAP3K3 (human) = MAP3K3 (human) (UniProt Q99759)
MAP2K6 (human) = MAP2K6 (human) (UniProt P52564)
MAP2K1 (human) = MAP2K1 (human) (UniProt Q02750)
NTRK3 (human) = NTRK3 (human) (UniProt Q16288)
SYK (human) = SYK (human) (UniProt P43405)
RPS6KB1 (human) = RPS6KB1 (human) (UniProt P23443)
STK35 (human) = STK35 (human) (UniProt Q8TDR2)
EPHB1 (human) = EPHB1 (human) (UniProt P54762)
[1] = test system: RET (human), P07949 [V804M]
SBK1 (human) = SBK1 (human) (UniProt Q52WX2)
ERBB2 (human) = ERBB2 (human) (UniProt P04626)
MTOR (human) = MTOR (human) (UniProt P42345)
AXL (human) = AXL (human) (UniProt P30530)

HIPK3 (human), sequence (Q9H422 whole entry, looked up): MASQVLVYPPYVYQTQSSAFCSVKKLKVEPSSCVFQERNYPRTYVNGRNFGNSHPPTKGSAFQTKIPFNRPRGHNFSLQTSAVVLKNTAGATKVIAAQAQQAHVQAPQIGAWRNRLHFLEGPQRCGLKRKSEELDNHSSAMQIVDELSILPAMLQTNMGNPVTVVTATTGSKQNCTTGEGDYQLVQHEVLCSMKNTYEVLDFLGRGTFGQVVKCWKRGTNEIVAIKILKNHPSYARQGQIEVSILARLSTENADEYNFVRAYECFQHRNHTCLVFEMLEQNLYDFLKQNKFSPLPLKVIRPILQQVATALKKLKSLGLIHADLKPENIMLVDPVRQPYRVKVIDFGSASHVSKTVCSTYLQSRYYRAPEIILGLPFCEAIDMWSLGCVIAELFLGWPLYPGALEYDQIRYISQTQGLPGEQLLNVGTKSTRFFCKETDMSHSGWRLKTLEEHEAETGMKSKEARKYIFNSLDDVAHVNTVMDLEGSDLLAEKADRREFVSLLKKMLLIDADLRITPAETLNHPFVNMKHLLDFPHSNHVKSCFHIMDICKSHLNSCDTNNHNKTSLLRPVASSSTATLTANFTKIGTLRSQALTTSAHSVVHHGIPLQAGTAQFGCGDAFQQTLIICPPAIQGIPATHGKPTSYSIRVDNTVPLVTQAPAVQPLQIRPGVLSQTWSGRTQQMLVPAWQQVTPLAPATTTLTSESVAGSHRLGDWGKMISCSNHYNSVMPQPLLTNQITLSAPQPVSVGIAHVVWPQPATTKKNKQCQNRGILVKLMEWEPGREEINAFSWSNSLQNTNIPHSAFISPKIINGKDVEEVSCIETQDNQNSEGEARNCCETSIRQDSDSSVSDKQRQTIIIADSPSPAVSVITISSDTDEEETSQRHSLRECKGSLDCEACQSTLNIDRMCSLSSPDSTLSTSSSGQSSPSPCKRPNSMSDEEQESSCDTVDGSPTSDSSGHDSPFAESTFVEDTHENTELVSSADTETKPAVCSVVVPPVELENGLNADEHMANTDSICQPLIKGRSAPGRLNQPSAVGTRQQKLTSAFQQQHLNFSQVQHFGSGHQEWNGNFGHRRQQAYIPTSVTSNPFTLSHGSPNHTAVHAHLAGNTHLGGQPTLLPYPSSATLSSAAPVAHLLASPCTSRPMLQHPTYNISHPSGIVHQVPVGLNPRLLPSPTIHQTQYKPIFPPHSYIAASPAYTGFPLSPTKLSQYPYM
PAK2 (human), sequence (Q13177 whole entry, looked up): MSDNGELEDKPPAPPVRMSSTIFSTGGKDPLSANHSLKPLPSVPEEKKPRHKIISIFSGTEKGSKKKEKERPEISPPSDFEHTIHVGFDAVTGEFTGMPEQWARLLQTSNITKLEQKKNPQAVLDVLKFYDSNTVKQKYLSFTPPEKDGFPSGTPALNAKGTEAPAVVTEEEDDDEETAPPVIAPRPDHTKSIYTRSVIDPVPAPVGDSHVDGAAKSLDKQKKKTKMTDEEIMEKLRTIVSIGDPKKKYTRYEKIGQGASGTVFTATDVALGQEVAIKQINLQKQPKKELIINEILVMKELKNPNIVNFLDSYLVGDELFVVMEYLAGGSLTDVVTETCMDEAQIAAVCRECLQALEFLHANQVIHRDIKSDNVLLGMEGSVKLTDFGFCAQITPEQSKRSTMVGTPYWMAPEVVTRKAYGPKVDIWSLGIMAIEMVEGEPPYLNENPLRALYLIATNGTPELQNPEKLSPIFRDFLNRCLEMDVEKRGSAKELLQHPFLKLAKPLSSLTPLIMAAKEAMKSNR

O=C1NC(=O)/C(=C/c2ccc3nccc(-c4ccncc4)c3c2)S1 gave a kinase still bound, per cent of control (HIPK3 (human)) of 1.2%, a kinase still bound, per cent of control (PAK2 (human)) of 21% and a kinase still bound, per cent of control (CDK7 (human)) of 1.7%. The kinase still bound, per cent of control (INSRR (human)) was 70%, the kinase still bound, per cent of control (CLK3 (human)) was 0.05% and the kinase still bound, per cent of control (STK17B (human)) was 0.6%. The kinase still bound, per cent of control (GAK (human)) was 0%, the kinase still bound, per cent of control (RPS6KA1 KD1 (human)) was 51% and the kinase still bound, per cent of control (ERBB4 (human)) was 65%. For the same compound, the kinase still bound, per cent of control (ABL2 (human)) was 77%, the kinase still bound, per cent of control (DYRK2 (human)) was 5.4% and the kinase still bound, per cent of control (GSK3B (human)) was 66%. It also gave a kinase still bound, per cent of control (CaMK1 (human)) of 65%, a kinase still bound, per cent of control (HUNK (human)) of 59% and a kinase still bound, per cent of control (PI4KB (human)) of 0.4%. The kinase still bound, per cent of control (CDKL3 (human)) was 99%, the kinase still bound, per cent of control (BTK (human)) was 58% and the kinase still bound, per cent of control (TEK (human)) was 98%. The kinase still bound, per cent of control (DCLK3 (human)) was 11%, the kinase still bound, per cent of control (TLK1 (human)) was 81% and the kinase still bound, per cent of control (TESK1 (human)) was 84%. It also gave a kinase still bound, per cent of control (PAK6 (human)) of 83%, a kinase still bound, per cent of control (ACVR2B (human)) of 20% and a kinase still bound, per cent of control (EPHA8 (human)) of 90%. The kinase still bound, per cent of control (PRKD1 (human)) was 89%, the kinase still bound, per cent of control (CDK14 (human)) was 37% and the kinase still bound, per cent of control (NEK6 (human)) was 81%. The kinase still bound, per cent of control (IGF1R (human)) was 100%, the kinase still bound, per cent of control (MAP3K3 (human)) was 75% and the kinase still bound, per cent of control (MAP2K6 (human)) was 69%. It also gave a kinase still bound, per cent of control (MAP2K1 (human)) of 1.8%, a kinase still bound, per cent of control (NTRK3 (human)) of 68% and a kinase still bound, per cent of control (SYK (human)) of 62%. For the same compound, the kinase still bound, per cent of control (RPS6KB1 (human)) was 53%, the kinase still bound, per cent of control (STK35 (human)) was 49% and the kinase still bound, per cent of control (EPHB1 (human)) was 90%. It also gave a kinase still bound, per cent of control [1] of 96%, a kinase still bound, per cent of control (SBK1 (human)) of 73% and a kinase still bound, per cent of control (ERBB2 (human)) of 66%. The kinase still bound, per cent of control (MTOR (human)) was 5% and the kinase still bound, per cent of control (AXL (human)) was 7.6%.
